Measurements published in patent publication US20250281492A1, “NEW CRYSTALLINE FORMS OF SALT OF 7-CYCLOPENTYL-2-(5-PIPERAZIN-1-YL-PYRIDIN-2-YLAMINO)-7H-PYRROLO[2,3-D]PYRIMIDINE -6-CARBOXYLIC ACID DIMETHYLAMIDE” (priority 2019, published 2025).

Legend:
Format in all cases: physicochemical
[1] = DVS (dynamic vapor sorption) sorption/desorption isotherms; conditions: for Desorption / Sorption: DVS, 25 degrees Celsius; for XRPD after DVS: after DVS cycle at 25 degrees Celsius; for hygroscopicity classification: from DVS data at 25° C.
Text: Anhydrous modifications A and E of ribociclib succinate were submitted to DVS analysis. The results are reported in FIGS. 14 and 15 and in Table 12.

Thermogravimetry = assay: Thermogravimetry
[2] = Hydrate formation: exposure at ambient temperature at various relative humidity in a desiccator
Text: Aliquots from ribociclib succinate Modification A were exposed in a desiccator with saturated solution of inorganic salt or drying agent to provide a range of various relative humidities.

[3] = Conversion to dihydrate Modification HB (water activity, suspension equilibration)
[4] = Long term stability studies, exposure to high relative humidity; conditions: 75% RH at 40 or 50° C., less protective packaging material
[5] = heating rate 10 degrees Celsius per minute
[6] = relative humidity 10%, succinate
[7] = relative humidity 20%, succinate
[8] = relative humidity 30%, succinate
[9] = relative humidity 40%, succinate
[10] = relative humidity 50%, succinate
[11] = relative humidity 60%, succinate
[12] = relative humidity 70%, succinate
[13] = relative humidity 80%, succinate
[14] = relative humidity 90%, succinate
[15] = relative humidity 95%, succinate

| SMILES | Desorption ([1]; relative humidity 0%) [wt %] | Sorption ([1]; relative humidity 0%) [wt %] | Desorption ([1]; relative humidity 20%) [wt %] | Desorption ([1]; relative humidity 30%) [wt %] | Desorption ([1]; relative humidity 40%) [wt %] | XRPD after DVS [1] | decomposition temperature (Thermogravimetry; [5]) | Desorption [1, 6] [wt %] | Sorption [1, 6] [wt %] | Sorption [1, 7] [wt %] | Sorption [1, 8] [wt %] | Sorption [1, 9] [wt %] | Sorption [1, 10] [wt %] | Sorption [1, 11] [wt %] | Sorption [1, 12] [wt %] | Sorption [1, 13] [wt %] | Sorption [1, 14] [wt %] | Sorption [1, 15] [wt %] | hygroscopicity classification ([1]; succinate) | loss on drying (Thermogravimetry; from 30 to 180° C.) | further results |
| --- | --- | --- | --- | --- | --- | --- | --- | --- | --- | --- | --- | --- | --- | --- | --- | --- | --- | --- | --- | --- | --- |
| CN(C)C(=O)c1cc2cnc(Nc3ccc(N4CCNCC4)cn3)nc2n1C1CCCC1.O.O.O=C(O)CCC(=O)O [Modification HB] | 0.0 | 0.0 | 1.7 | 1.9 | 2.0 | No change | about 200 °C | – | – | – | – | – | – | – | – | – | – | – | – | – | Desorption ([1]; relative humidity 10%): 1.2 wt %; Sorption ([1]; relative humidity 10%): 0.8 wt %; Sorption ([1]; relative humidity 20%): 1.3 wt %; Sorption ([1]; relative humidity 30%): 1.7 wt %; Sorption ([1]; relative humidity 40%): 1.9 wt %; Sorption ([1]; relative humidity 50%): 2.1 wt %; Sorption ([1]; relative humidity 60%): 2.2 wt %; Sorption ([1]; relative humidity 70%): 2.3 wt %; Sorption ([1]; relative humidity 80%): 2.4 wt %; Sorption ([1]; relative humidity 90%): 2.5 wt %; Sorption ([1]; relative humidity 95%): 2.5 wt %; mass loss on loss of water (Thermogravimetry; at about 120° C.): about 5.8%; temperature of loss of water (Thermogravimetry; [5]): about 120 °C |
| CN(C)C(=O)c1cc2cnc(Nc3ccc(N4CCNCC4)cn3)nc2n1C1CCCC1 [Modification F] | – | – | – | – | – | – | – | – | – | – | – | – | – | – | – | – | – | – | – | – | loss on drying (Thermogravimetry; from 30 to 140° C.): less than 0.0% |
| CN(C)C(=O)c1cc2cnc(Nc3ccc(N4CCNCC4)cn3)nc2n1C1CCCC1.O=C(O)CCC(=O)O [Modification A, 7-Cyclopentyl-2-(5-piperazin-1-yl-pyridin-2-ylamino)-7H-pyrrolo[2,3-d]pyrimidine-6-carboxylic acid dimethylamide succinate, reference compound] | 0.0 | 0.0 | 0.1 | 0.1 | 0.1 | No change | about 200 °C | 0.1 | 0.1 | 0.1 | 0.2 | 0.2 | 0.2 | 0.2 | 0.3 | 0.3 | 0.5 | 0.7 | slightly hygroscopic | less than 0.05% | maximum mass change compared to the dry state ([1]; exposed to 92% HR., 25° C.): about 0.7%; water uptake in comparison to the dry state (0% RH) ([1]; exposed to 95% RH in DVS cycle at 25° C.): about 0.7%; loss on drying by thermogravimetry ([2]; after 10 days at 92% RH, ambient temperature): 3.9%; physical stability (XRPD) ([2]; exposed to 92% RH at ambient temperature for 1 day, peaks assigned to Modification HA): some additional peaks at about 4.7, 6.4, 12.0 and 13.0 degree 2θ can be detected; conversion (XRPD) ([2]; exposed to 92% RH at ambient temperature for 10 days): complete conversion; physical stability (XRPD) ([2]; exposed up to 80% RH at ambient temperature for 1 day): physically stable; loss on drying by thermogravimetry ([2]; starting material before exposure): lower than 0.05%; behaviour at high relative humidity ([2]; sufficient amount of time at relative humidity close or higher than 92%): starts to deliquesce; water activity for conversion into dihydrate Modification HB ([3]; conversion observed in bulk at 40° C./75% RH): higher than 70 % relative humidity (RH); physical stability (XRPD) [4]: physically unstable |
| CN(C)C(=O)c1cc2cnc(Nc3ccc(N4CCNCC4)cn3)nc2n1C1CCCC1.O=C(O)CCC(=O)O [Modification E, 7-Cyclopentyl-2-(5-piperazin-1-yl-pyridin-2-ylamino)-7H-pyrrolo[2,3-d]pyrimidine-6-carboxylic acid dimethylamide succinate] | 0.0 | 0.0 | 0.1 | 0.1 | 0.1 | No change | about 200 °C | 0.0 | 0.0 | 0.0 | 0.1 | 0.1 | 0.1 | 0.1 | 0.1 | 0.1 | 0.1 | 0.1 | not hygroscopic | less than 0.05% | max water uptake (mass change) ([1]; DVS cycle at 25° C.): 0.1%; water activity (aH2O) at which Modification HB is obtained ([3]; suspension equilibration at 25° C.): ≥ 0.68 |
